Data on ten compounds can be found in ChEMBL document CHEMBL4024717, “Anthranilamide-based 2-phenylcyclopropane-1-carboxamides, 1,1'-biphenyl-4-carboxamides and 1,1'-biphenyl-2-carboxamides: Synthesis biological evaluation and mechanism of action” (Eur J Med Chem, 2017).

The assay has as its system K562. The experiment in a line: Growth inhibition of human K562 cells at 10 uM after 24 hrs by MTT assay relative to control. The format is functional. Conditions: K562, 24 h, read-out: GI.

For `NC(=O)c1cc(Cl)ccc1NC(=O)[C@@H]1C[C@H]1c1ccccc1`, the inhibition of growth at 10 µM came out at 24%.

In the case of `COc1cc(NC(=O)c2ccc(-c3ccccc3)cc2)c(C(N)=O)cc1OC`, the inhibition of growth at 10 µM worked out at 48%.

As for `NC(=O)c1cc(Cl)ccc1NC(=O)c1ccc(-c2ccccc2)cc1`, the inhibition of growth at 10 µM was determined as 45%. Consider `NC(=O)c1ccccc1NC(=O)[C@@H]1C[C@H]1c1ccccc1`, for which the inhibition of growth at 10 µM was less than 10%. As for `Cc1ccc(NC(=O)c2ccc(-c3ccccc3)cc2)c(C(N)=O)c1`, the figure is 39.7%; as for `NC(=O)c1ccccc1NC(=O)c1ccccc1-c1ccccc1`, 44.6%. As for `NC(=O)c1ccccc1NC(=O)c1ccc(-c2ccccc2)cc1`, the figure is 21.6%; as for `COc1cc(NC(=O)c2ccccc2-c2ccccc2)c(C(N)=O)cc1OC`, 46%; as for `NC(=O)c1cc(Cl)ccc1NC(=O)c1ccccc1-c1ccccc1`, 47.3%. As for `COc1ccc(NC(=O)[C@@H]2C[C@H]2c2ccccc2)c(C(N)=O)c1`, the figure is 26.7%.
